What all share (type): cell-based
For assay [1], the system named is S. aureus ATCC 25923. The assay is described as follows: MIC, CLSI broth microdilution (Table 1). The note with it: Staphylococcus aureus.
Assay [2] concerns S. aureus ATCC 43300 (MRSA, FQ-S). The assay can be described thus: MIC, CLSI broth microdilution (Table 1). The note with it: Staphylococcus aureus, read-out: MIC S. aureus ATCC 43300 (MRSA, FQ-S). A general note: Dilution methods test growth across graded concentrations, often in twofold steps.
Assay [3] concerns S. aureus BAA-1720 (MRSA, FQ-R). The assay can be described thus: MIC, CLSI broth microdilution (Table 1). The note with it: Staphylococcus aureus, read-out: MIC S. aureus BAA-1720 (MRSA, FQ-R).
Assay [4] relates to E. faecium ATCC 19434. The assay can be described thus: MIC, CLSI broth microdilution (Table 1). The note with it: Enterococcus faecium.
The test system of assay [5] is E. faecalis ATCC 29212. The assay is described as follows: MIC, CLSI broth microdilution (Table 1). The note with it: Enterococcus faecalis, ATCC29212, read-out: MIC E. faecalis ATCC 29212.
The test system of assay [6] is S. pneumonia ATCC 49619. The assay is described as follows: MIC, CLSI broth microdilution (Table 1). The note with it: Streptococcus pneumoniae.
In assay [7] the test system is E. coli ATCC 25922. The assay can be described thus: MIC, CLSI broth microdilution (Table 2). The note with it: Escherichia coli.
The subject of assay [8] is A. baumannii ATCC 19606. The assay is described as follows: MIC, CLSI broth microdilution (Table 2). The note with it: Acinetobacter baumannii.
The subject of assay [9] is P. aeruginosa ATCC 27853. The assay is described as follows: MIC, CLSI broth microdilution (Table 2). The note with it: Pseudomonas aeruginosa.
In assay [10] the test system is K. pneumoniae ATCC 33495. The assay can be described thus: MIC, CLSI broth microdilution (Table 2). The note with it: Klebsiella pneumoniae, ATCC33495, read-out: MIC K. pneumoniae ATCC 33495.
The subject of assay [11] is H. influenzae ATCC 49247. The assay can be described thus: MIC, CLSI broth microdilution (Table 2). The note with it: Haemophilus influenzae.
For assay [12], the system named is S. maltophilia ATCC 17677. The assay is described as follows: MIC, CLSI broth microdilution (Table 2). The note with it: Stenotrophomonas maltophilia.
In assay [13] the test system is Bacillus anthracis Ames strain. The assay can be described thus: microbe, parasite or virus in culture.
Assay [14] relates to Brucella abortus ATCC 23448. The assay can be described thus: microbe, parasite or virus in culture. The note with it: ATCC23448.
For assay [15], the system named is Burkholderia mallei ATCC 23344. The assay can be described thus: microbe, parasite or virus in culture. The note with it: ATCC23344.
Assay [16] has as its system Burkholderia pseudomallei ATCC 23343. The assay can be described thus: microbe, parasite or virus in culture. The note with it: ATCC23343.
In assay [17] the test system is Francisella tularensis Schu S4. The assay can be described thus: microbe, parasite or virus in culture. The note with it: SCHUS4.
The test system of assay [18] is Yersinia pestis C092. The assay is described as follows: microbe, parasite or virus in culture.
[19] abbreviates: Gram positive, MHB, 37° C., 16-20 hours.
Setting [20] is: ATCC25923, read-out: MIC S. aureus ATCC 25923.
Setting [21] is: ATCC19434, read-out: MIC E. faecium ATCC 19434.
Where [22] appears, read: ATCC49619, read-out: MIC S. pneumonia ATCC 49619.
Setting [23] is: ATCC25922, read-out: MIC E. coli ATCC 25922.
[24] abbreviates: ATCC19606, read-out: MIC A. baumannii B. ATCC 19606.
Where [25] appears, read: ATCC27853, read-out: MIC P. aeruginosa ATCC 27853.
[26] abbreviates: ATCC49247, read-out: MIC H. influenzae ATCC 49247.
The mark [27] stands for this setting: ATCC17677, read-out: MIC S. maltophilia ATCC 17677.

SMILES strings stand for the structures. Where a name gives a salt, the structure may show the parent alone. Read-outs that look alike come from different tables or passages of the source. A value given as a limit tells only on which side of the number the result lay.

Turning to `Cc1c(-c2ccnc(F)c2)ccn2c(=O)c(C(=O)O)cc(C3CC3)c12` [Example 20 K salt, 1-cyclopropyl-8-(2-fluoro-pyridin-4-yl)-9-methyl-4-oxo-4H-quinolizine-3-carboxylic acid], the MIC in [1] (ATCC25923, Gram positive, MHB, 37° C., 16-20 hours, read-out: MIC S. aureus ATCC 25923) came to 0.032 µg/mL; in [2] (setting [19]), 0.016 µg/mL; in [3] (setting [19]) it was 1 µg/mL; in [4] (ATCC19434, Gram positive, MHB, 37° C., 16-20 hours, read-out: MIC E. faecium ATCC 19434), 1 µg/mL; in assay [5], 0.125 µg/mL; in assay [6] (ATCC49619, Gram positive, MHB, 37° C., 16-20 hours, read-out: MIC S. pneumonia ATCC 49619), 0.25 µg/mL. Moreover, the MIC was 0.064 µg/mL in [7] (ATCC25922, Gram negative, MHB, 37° C., 16-20 hours, read-out: MIC E. coli ATCC 25922); 0.25 µg/mL in assay [8] (ATCC19606, Gram negative, MHB, 37° C., 16-20 hours, read-out: MIC A. baumannii B. ATCC 19606); 2 to 4 µg/mL in assay [9] (ATCC27853, Gram negative, MHB, 37° C., 16-20 hours, read-out: MIC P. aeruginosa ATCC 27853); 0.125 to 0.25 µg/mL in assay [10]; ≤ 0.004 µg/mL in [11] (ATCC49247, Gram negative, MHB, 37° C., 16-20 hours, read-out: MIC H. influenzae ATCC 49247); 0.25 µg/mL in assay [12] (ATCC17677, Gram negative, MHB, 37° C., 16-20 hours, read-out: MIC S. maltophilia ATCC 17677). For the same compound, the MIC in assay [13] is 0.031 µg/mL; in assay [14], 0.063 µg/mL; in assay [15] it was 0.125 µg/mL; in assay [16], 0.25 µg/mL; in [17], 0.008 to 0.016 µg/mL; in assay [18] it was 0.063 µg/mL.

For the compound `Cc1c(-c2ccc(N)nc2)ccn2c(=O)c(C(=O)O)cc(C3CC3)c12` [Example 21 K salt, 8-(6-amino-pyridin-3-yl)-1-cyclopropyl-9-methyl-4-oxo-4H-quinolizine-3-carboxylic acid], the MIC was determined as 0.008 µg/mL in [1] (setting [20]); 0.008 µg/mL in assay [2]; 0.25 µg/mL in assay [3]; 0.5 µg/mL in [4] (setting [21]); 0.032 µg/mL in assay [5]; 0.032 µg/mL in assay [6] (setting [22]). Also, the MIC in assay [7] (setting [23]) was 0.016 to 0.032 µg/mL; in [8] (setting [24]) it was 0.064 to 0.125 µg/mL; in [9] (setting [25]) it was 1 to 2 µg/mL; in assay [10], 0.064 µg/mL; in [11] (setting [26]) it was ≤ 0.004 µg/mL; in assay [12] (setting [27]), 0.125 µg/mL. In addition, the MIC in [13] was 0.016 µg/mL; in assay [14], 0.063 µg/mL; in [15], 0.125 to 0.25 µg/mL; in [16], 0.25 to 0.5 µg/mL; in assay [17], 0.031 µg/mL; in [18], 0.031 µg/mL.

Take `Cc1c(-c2ccc3[nH]ncc3c2)ccn2c(=O)c(C(=O)O)cc(C3CC3)c12` [Example 23 K salt, 1-cyclopropyl-8-(1H-indazol-5-yl)-9-methyl-4-oxo-4H-quinolizine-3-carboxylic acid]: the MIC was ≤ 0.004 µg/mL in assay [1] (setting [20]); ≤ 0.004 µg/mL in assay [2]; 0.125 µg/mL in assay [3]; 0.25 µg/mL in assay [4] (setting [21]); 0.008 µg/mL in [5]; 0.064 µg/mL in assay [6] (setting [22]). For the same compound, the MIC in assay [7] (setting [23]) is 0.032 µg/mL; in assay [8] (setting [24]), 0.125 µg/mL; in assay [9] (setting [25]), 2 µg/mL; in [10], 0.125 µg/mL; in [11] (setting [26]), ≤ 0.004 µg/mL; in assay [12] (setting [27]), 0.064 µg/mL. Besides, the MIC in assay [13] was 0.004 µg/mL; in assay [14] it was 0.016 µg/mL; in [15], 0.063 µg/mL; in [16], 0.063 µg/mL; in assay [17] it was 0.016 µg/mL; in [18], 0.016 to 0.031 µg/mL.

As for `Cc1c(-c2cc(F)c(N)cc2F)ccn2c(=O)c(C(=O)O)cc(C3CC3)c12` [Example 28 K salt, 8-(4-amino-2,5-difluoro-phenyl)-1-cyclopropyl-9-methyl-4-oxo-4H-quinolizine-3-carboxylic acid], the MIC in assay [1] (setting [20]) was ≤ 0.004 µg/mL; in [2] it was ≤ 0.004 µg/mL; in [3], 0.064 µg/mL; in assay [4] (setting [21]), 0.25 µg/mL; in [5], 0.016 µg/mL; in assay [6] (setting [22]) it was 0.032 µg/mL. Further, the MIC in assay [7] (setting [23]) was 0.032 to 0.064 µg/mL; in assay [8] (setting [24]) it was 0.125 µg/mL; in [9] (setting [25]), 2 µg/mL; in assay [10], 0.25 to 0.5 µg/mL; in [11] (setting [26]), ≤ 0.004 µg/mL; in assay [12] (setting [27]), 0.125 µg/mL. Besides, the MIC in assay [13] was 0.004 µg/mL; in assay [14], 0.031 to 0.063 µg/mL; in assay [15] it was 0.125 to 0.25 µg/mL; in assay [16] it was 0.125 µg/mL; in assay [17], 0.008 µg/mL; in assay [18] it was 0.016 to 0.031 µg/mL.

The record behind these values is patent US20150141435A1, “2-PYRIDONE ANTIMICROBIAL COMPOSITIONS” (Emergent BioSolutions, priority 2010, published 2015).
